Results from PMC7367283, “A PIP2 substitute mediates voltage sensor-pore coupling in KCNQ activation” (Communications Biology, 2020).
Several values for one entry are separate records, joined by “and”; a condition that tells them apart may be missing. Equal values may be shown once.

Target: KCNQ2/KCNQ3* (Homo sapiens, UniProt O43525+O43526, A315T)
Assay: Two-electrode voltage clamp of KCNQ2+KCNQ3* in Xenopus oocytes
Assay type: cell-based
Settings: Q2/Q3*, individual oocytes
Excerpt: KCNQ2 and KCNQ3 form a channel complex that carries M currents in neurons. Similar to KCNQ1, these KCNQ subunits require PIP2 for voltage-dependent activation. KCNQ2 alone can express functional channels in Xenopus oocytes, while KCNQ3 alone cannot. However, a single mutation, A315T, allows KCNQ3 to functionally express in Xenopus oocytes. We examined the effects of CP1 on KCNQ2, KCNQ3 with mutation A315T (denoted as KCNQ3*), KCNQ2+KCNQ3, and KCNQ2+KCNQ3* expressed in Xenopus oocytes (Fig. 5a). Similar to the effects on KCNQ1 and IKs channels, CP1 changed the amplitude of currents (Fig. 5b), shifted the G–V relation to more negative voltages (Fig. 5c), and slowed the deactivation kinetics (Fig. 5d) for all of these KCNQ channels. These CP1 effects were relatively small on KCNQ2 as compared with those on other KCNQ channels, and the effects on KCNQ2/KCNQ3* and KCNQ2/KCNQ3 complexes were closer to those on KCNQ2 alone.
Fig. 5 Subtype selectivity of CP1 on KCNQ channels. a Current traces of KCNQ channels as indicated in the absence and the presence of 10 µM CP1. […]
The whole-oocyte ionic currents were recorded with a GeneClamp 500B amplifier (Axon Instruments, CA) or iTEV90 amplifier (HEKA, Germany) and then sampled at 1 kHz and low-pass-filtered at 2 kHz. […] The Kir1.1 current was recorded with a high K^+ bath solution containing (in mM) 96 KCl, 4 NaCl, 1 CaCl2, 2 MgCl2, and 10 HEPES, pH 7.3–7.4. The HCN4 current was recorded in ND66 solution containing (in mM) 66 NaCl, 32 KCl, 1.8 CaCl2, 1 MgCl2, and 5 HEPES, pH 7.6. All the other potassium channels were recorded in ND96 solution. The currents of CaV1.2 channel were recorded in 40 mM Ba^2+ bath solution containing (in mM) 40 Ba(OH)2, 50 TEA-OH, 2 KOH, and 5 HEPES, adjusted to pH 7.4 with methanesulfonic acid. […] The HCN4 currents were recorded by a test pulse between −30 and −140 mV in 10-mV step from a holding potential of −30 mV. […]

For `O=S(=O)([O-])Oc1c(-c2sc3c(ccc4cccc(Cl)c43)c2OS(=O)(=O)[O-])[nH]c2ccc(Br)cc12.[Na+].[Na+]` [CP1, DISODIUM 5-BROMO-2-[9-CHLORO-3-(SULFONATOOXY) NAPHTHO [1,2-B] THIEN-2-YL]-1H-INDOL-3-YL SULFATE], the “outward current (Icp1/Ictrl)” value (10 µM CP1, at −10 mV) was 1.1575 and 0.9892 and 1.0474 and 1.088, the “∆V1/2” value (10 µM CP1) was 15.9435 mV and 15.3238 mV and 21.3532 mV and 15.8237 mV and the “τ deact at -120 mV” value (10 µM CP1 treated) was 0.0814 s and 0.0836 s and 0.1825 s and 0.1031 s and 0.1951 s.
